Data published in patent publication US5656608A (priority 1995, dated 1997).
Read-outs that look alike come from different tables or passages of the source.

Key:
[1] = system: rat liver (previously anoxic pericentral regions); assay: cells; conditions: for IC50: Rattus norvegicus
Experimental: Animals used: Male Sprague-Dawley rats weighing between 180-210 g and fed a Purina diet. Rats were fasted for 24 h prior to surgery.
Liver Perfusion: Rats were anesthetized with pentobarbital sodium (50 mg) before surgery and livers were removed surgically and perfused via a cannula inserted into the portal vein with Krebs-Henseleit bicarbonate buffer (pH 7.4, 37° C.) saturated with an oxygen-carbon dioxide (95:5) mixture in a non-recirculating system (Krebs-Henseleit, 1932). After surgery, livers were perfused at flow rates around 1 ml/g/min for 75 minutes (low-flow). Subsequently, livers were perfused at normal flow rates (4 ml/g/min) for 40 minutes (reflow).
Lactate dehydrogenase (LDH): LDH activity in the perfusate was determined using standard enzymatic techniques (Bergmeyer, 1988). […] After cooling, samples were centrifuged at 1000×g for 10 minutes and the absorbance of the supernatant was determined at 535 nm. Rates of release of LDH expressed per gram wet weight of liver per hour.
Trypan Blue Distribution Time and Histological Procedures: To assess microcirculation and cell death in the liver, trypan blue was infused into the liver at the end of all experiments at final concentrations of 0.2 mM (Belinsky et al., 1984). The time for the liver surface to turn evenly dark blue was recorded. Excess dye was removed by perfusion with Krebs-Henseleit buffer for an additional 10 minutes. Subsequently, livers were perfused with 1% paraformaldehyde for 10 minutes and fixed tissue was embedded in paraffin and processed for light microscopy. Sections were stained only with eosin, a cytoplasmic stain, so that trypan blue could be identified readily in the nuclei of damaged cells.
All nuclei of parenchymal cells in a zone radiating five cells from either periportal or pericentral regions were identified as trypan blue-positive or negative. The percentage of staining was calculated from the number of stained nuclei divided by the total number of cells in any given region.
Statistical Analysis: Student's-t-test or ANOVA was used where appropriate. Differences were considered significant when the p-value was less than 0.05.

[2] = system: lipopolysaccharide (LPS) endotoxic shock in rats; conditions: for mortality: 5% glycine diet
Experimental: (§1) The rats were then injected lipopolysaccharide (LPS; 10, 20 and 30 mg/kg resp.) from the tail vein and mortality was assessed 24 hours after the injection.

[3] = system: AST (Aspartate Aminotransferase); conditions: glycine diet; LPS 10 mg/kg; survivors; untreated fed 2000 IU/L
Experimental: as §1
b) From the survivors, the liver enzyme AST (Aspartate Aminotransferase; a transaminase) was measured as indication for liver damage.

liver and lung = conditions: glycine diet; 24 hr after LPS 10 mg/kg
Experimental: d) Liver and lung specimens for histology were taken 24 hr after injection of LPS (10 mg/kg) and hematoxylin-eosin stained.

[4] = system: partial hepatic ischemia/reperfusion and LPS injection in rats; conditions: glycine diet 3 days; 90 min partial hepatic ischemia/reperfusion; LPS 5 mg/kg; 24 hours; p<0.05; control 0 of 4
Experimental: A sublethal dose of LPS (5 mg/kg) was injected via tail vein 6 hr after reperfusion.

[5] = system: liver (steatosis, inflammation and necrosis)
From the text: Rats underwent liver biopsy and autopsy after 2 and 4 weeks of treatment with ethanol. Livers were formalin-fixed, embedded in paraffin and stained with hematoxylin and eosin to assess steatosis, inflammation and necrosis. Liver pathology was scored as described by Nanji et al. as follows: steatosis (the percent liver cells containing fat): <25%=1+; <50%=2+; <75%=3+, >75%=4+; inflammation and necrosis: 1 focus per low-power field=1+; 2 or more=2+.

[6] = body weight and ethanol intake during ethanol treatment; format: in vivo, Male Wistar rats; conditions: liquid glycine diets; 4 weeks of ethanol
Experimental: (§2) In Male Wistar rats, weighing 300 to 320 mg each, intragastric cannulas were inserted as described by Tsukamoto and French. Cannulas were tunnelled subcutaneously to the dorsal aspect of the neck and attached to infusion pumps by means of a spring-tether device and swivel allowing complete mobility of rats in metabolic cages.
(§3) A liquid diet described by Thompson and Reitz was used.

[7] = system: tumour necrosis factor (TNF)
[8] = system: ethanol concentration in breath, feces, urine, blood and stomach; conditions: for ethanol concentration, Feces / ethanol concentration, Stomach: * p < 0.05
Experimental: as §2, §3
Concentration of ethanol in urine, which are representative of blood alcohol levels were measured daily. Rats were housed in metabolic cages that separated urine from feces, and urine was collected over 24 hours in bottles containing mineral oil to prevent evaporation.
ANOVA or Student's t-test was used for determination of statistical significance as appropriate. […] A p value less than 0.05 was selected before the study as the level of significance.

[9] = system: Asparate Aminotransferase (AST); conditions: for serum AST: 4 weeks, liquid control diet 183 IU/L
Experimental: as §2, §3
Blood was collected via the tail vein once a week and centrifuged. Serum was stored at -20° C. in a microtube until assayed for AST by standard enzymatic procedures.

infection = conditions: in vivo
in vivo = conditions: rat, iv, 10 mg/kg
variety of cells = conditions: anoxia, potassium cyanide and t-butyl hydroxide; cited from earlier work
suspended hepatocytes = conditions: injury by calcium ionophores or oxidative stress; cited from earlier work
liver graft = conditions: added to liver graft storage solution; dogs; cited from earlier work
[10] = liquid 2% and 5% glycine diet, 4 weeks
[11] = Table 1, Mean ± S.E.M., ethanol with or without 5% glycine
[12] = Table 1, Mean ± S.E.M., ethanol with or without 5% glycine, ** p < 0.01
[13] = Table 1, Mean ± S.E.M., ethanol with or without 5% glycine, *** p < 0.001

NCC(=O)O [glycine]
LDH release and cell death during reperfusion (in words) [1]: minimized LDH release and cell death almost completely
MDA production during reperfusion [1]: tends to decrease with glycine, changes are not statistically significant
oxygen uptake (indicator of mitochondrial function) [1]: not altered
trypan blue distribution time ([1]; 2 mM glycine, 40 minutes of reperfusion, control about 460 seconds): about 250 seconds
trypan blue distribution time (in words) ([1]; 5 and 40 minutes after reflow): reduced significantly at 5 and 40 minutes after reflow
change of trypan blue distribution time at later vs earlier time point ([1]; 40 vs 5 minutes after reflow): about 2 fold
trypan blue distribution time ([1]; 5 minutes after reperfusion, control 225 seconds, p<0.05, n=5): about 190 seconds
IC50 ([1]; 40 min, read-out: half maximal decrease of trypan blue distribution time, 40 minutes of reflow): 180 µM
IC50 ([1]; read-out: half-maximal decrease of LDH release, rat liver, glycine infused from 10 min before reflow): 180 µM
IC50 ([1]; read-out: half-maximal effect (trypan blue distribution time; cytoprotective effect), reflow liver perfusion): 180 µM
enzyme (LDH) release, dose dependence (in words) ([1]; glycine 0.06-2 mM): minimizes enzyme release in a dose-dependent manner
protection in the rat liver reperfusion model ([1]; physiological concentrations of 240-300 mmol (in humans)): more than half maximal protection
protection against LPS mortality ([2]; 5% glycine diet 3 days, LPS 10 mg/kg, control 50% mortality, p<0.05): 100%
mortality ([2]; LPS 20 mg/kg, control 70%): 30%
mortality ([2]; LPS 30 mg/kg, control 100%): 90%
AST level [3]: markedly and significantly reduced
liver necrosis (histology) (liver and lung): less necrosis in the liver
pulmonary edema (histology) (liver and lung): less pulmonary edema
survival [4]: 5 rats out of 6
fatty changes (steatosis) [5, 10]: attenuated
necrosis and inflammation [5, 10]: almost totally absent
inflammation (statistics) ([5]; liquid glycine diets): only a tendency for reduction
reductions of steatosis and necrosis (statistics) ([5]; liquid glycine diets): statistically significantly
liver injury due to chronic intragastric ethanol exposure ([5]; rat): prevents liver injury
body weight [6]: no significant differences in body weight
time of serum TNF peak after injection ([7]; 5% glycine diet, LPS 10 mg/kg, control 60 min): 150 min
suppression of serum TNF increase ([7]; 5% glycine diet, LPS 10 mg/kg, p<0.05, control over 6000 pg/ml): at least 50%
release of TNF into the systemic circulation ([7]; following endotoxic shock): significantly reduces the release of TNF
ethanol concentration, Feces [8, 11]: 15 ± 11
ethanol concentration, Stomach [8, 11]: 26
ethanol concentration, Blood Tail Vein [8, 12]: 21 ± 13
ethanol concentration, Urine A.M. [8, 12]: 26 ± 25
ethanol concentration, Blood Portal [8, 13]: 10 ± 7
ethanol concentration, Breath [8, 13]: 5 ± 4
ethanol concentration, Urine 24 hr [8, 13]: 24 ± 8
alcohol in stomach contents (in words) ([8]; glycine-treated rats): reduced dramatically
reduction of the mean urine alcohol concentration ([8]; liquid 2% glycine diet): 50%
reduction of the mean urine alcohol concentration ([8]; liquid 5% glycine diet): 70%
daily urine alcohol concentration (in words) ([8]; liquid glycine diets): very low but were still cyclic
transfer of alcohol from the stomach into the blood ([8]; rat, in vivo): prevents the transfer of alcohol from the stomach into the blood
increase of serum AST (in words) ([9]; both glycine treatments, every point during the study): attenuated significantly
serum AST ([9]; liquid 2% glycine diet): 66 IU/L
serum AST ([9]; liquid 5% glycine diet): 100 IU/L
ischemic/endotoxic liver and organ damage, activation of Kupffer cells (Kupffer cells): prevents or at least substantially suppresses
protective effect compared with fish oil (infection): more profound and acute than that obtainable by fish oil treatment
concentration at 6 h (in vivo): 1730 ± 515 µM
cell damage (variety of cells): reduce cell damage
protection of suspended hepatocytes (suspended hepatocytes): not found to protect
survival (liver graft): did not improve survival

CCO [ethanol, reference compound]
ethanol concentration, Feces [8, 11]: 82 ± 21
ethanol concentration, Stomach [8, 11]: 761 ± 625
ethanol concentration, Blood Tail Vein [8, 12]: 199 ± 45
ethanol concentration, Blood Portal [8, 13]: 357 ± 65
ethanol concentration, Breath [8, 13]: 108 ± 12
ethanol concentration, Urine A.M. ([8]; rat, in vivo, po): 184 ± 12
urine alcohol level, upper end of cyclic fluctuation ([8]; rat, in vivo, po): greater than 300 mg/dl
